Data taken from US20050112573A1, “Method of detecting toxic substance” (priority 2001, published 2005).

Tested on: yeast genes (level of expressed mRNA)
Experiment: DNA chip analysis of expressed mRNA of yeast genes after 2 h culture with a toxic chemical substance
Assay type: cell-based, Saccharomyces cerevisiae S288C
Method in brief: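 S. cerevisiae S288C grown at 25° C in YPD; toxicant added at log phase at growth-inhibitory, non-lethal levels for 2 h, untreated cells as control. Poly(A) mRNA reverse-transcribed with Cy3/Cy5-dUTP, hybridized to whole-genome chip at 65° C >12 h; value is fluorescence ratio versus untreated.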

C=CC=O [(14), acrolein]
0.5: The level of expressed mRNA in the presence of chemical substance/absence: YLR339C (gene YLR339C)
0.6: level of expressed mRNA in the presence of chemical substance/in its absence (gene YLR180W) | level of expressed mRNA in the presence of chemical substance/in its absence (gene YLR300W) | The level of expressed mRNA in the presence of chemical substance/absence: YNL200C (gene YNL200C) | The level of expressed mRNA in the presence of chemical substance/absence: YOL030W (gene YOL030W)
0.7: level of expressed mRNA in the presence of chemical substance/in its absence (gene YIL033C) | The level of expressed mRNA in the presence of chemical substance/absence: YKL051W (gene YKL051W) | level of expressed mRNA in the presence of chemical substance/in its absence (gene YMR296C) | level of expressed mRNA in the presence of chemical substance/in its absence (gene YOL143C) | level of expressed mRNA in the presence of chemical substance/in its absence (gene YOR099W)
1.7: The level of expressed mRNA in the presence of chemical substance/absence: YLR097C (gene YLR097C)
1.2: The level of expressed mRNA in the presence of chemical substance/absence: YHR105W (gene YHR105W) | level of expressed mRNA in the presence of chemical substance/in its absence (gene YKL067W) | level of expressed mRNA in the presence of chemical substance/in its absence (gene YKR039W) | The level of expressed mRNA in the presence of chemical substance/absence: YMR071C (gene YMR071C) | level of expressed mRNA in the presence of chemical substance/in its absence (gene YNL322C) | level of expressed mRNA in the presence of chemical substance/in its absence (gene YNR002C) | level of expressed mRNA in the presence of chemical substance/in its absence (gene YOL126C) | level of expressed mRNA in the presence of chemical substance/in its absence (gene YOL157C)
1.0: The level of expressed mRNA in the presence of chemical substance/absence: YGR293C (gene YGR293C) | The level of expressed mRNA in the presence of chemical substance/absence: YIL108W (gene YIL108W) | The level of expressed mRNA in the presence of chemical substance/absence: YJL017W (gene YJL017W) | The level of expressed mRNA in the presence of chemical substance/absence: YJL097W (gene YJL097W) | The level of expressed mRNA in the presence of chemical substance/absence: YJR030C (gene YJR030C) | The level of expressed mRNA in the presence of chemical substance/absence: YKL097C (gene YKL097C) | The level of expressed mRNA in the presence of chemical substance/absence: YKL100C (gene YKL100C) | The level of expressed mRNA in the presence of chemical substance/absence: YML118W (gene YML118W) | level of expressed mRNA in the presence of chemical substance/in its absence (gene YMR105C) | The level of expressed mRNA in the presence of chemical substance/absence: YMR258C (gene YMR258C) | level of expressed mRNA in the presence of chemical substance/in its absence (gene YNL012W) | level of expressed mRNA in the presence of chemical substance/in its absence (gene YNL130C) | The level of expressed mRNA in the presence of chemical substance/absence: YNL191W (gene YNL191W) | The level of expressed mRNA in the presence of chemical substance/absence: YNL212W (gene YNL212W) | level of expressed mRNA in the presence of chemical substance/in its absence (gene YNR019W) | The level of expressed mRNA in the presence of chemical substance/absence: YNR051C (gene YNR051C) | level of expressed mRNA in the presence of chemical substance/in its absence (gene YNR059W) | The level of expressed mRNA in the presence of chemical substance/absence: YOR022C (gene YOR022C)
0.4: The level of expressed mRNA in the presence of chemical substance/absence: YOR088W (gene YOR088W)
1.3: level of expressed mRNA in the presence of chemical substance/in its absence (gene YHR190W) | The level of expressed mRNA in the presence of chemical substance/absence: YIL127C (gene YIL127C) | The level of expressed mRNA in the presence of chemical substance/absence: YIL165C (gene YIL165C) | The level of expressed mRNA in the presence of chemical substance/absence: YJR044C (gene YJR044C) | level of expressed mRNA in the presence of chemical substance/in its absence (gene YJR142W) | level of expressed mRNA in the presence of chemical substance/in its absence (gene YJR148W) | The level of expressed mRNA in the presence of chemical substance/absence: YKL094W (gene YKL094W) | level of expressed mRNA in the presence of chemical substance/in its absence (gene YLR273C) | The level of expressed mRNA in the presence of chemical substance/absence: YMR115W (gene YMR115W) | level of expressed mRNA in the presence of chemical substance/in its absence (gene YNL037C) | The level of expressed mRNA in the presence of chemical substance/absence: YOL026C (gene YOL026C) | level of expressed mRNA in the presence of chemical substance/in its absence (gene YOR130C) | The level of expressed mRNA in the presence of chemical substance/absence: YOR253W (gene YOR253W)
1.4: level of expressed mRNA in the presence of chemical substance/in its absence (gene YIL167W) | level of expressed mRNA in the presence of chemical substance/in its absence (gene YJL132W) | The level of expressed mRNA in the presence of chemical substance/absence: YKL090W (gene YKL090W) | The level of expressed mRNA in the presence of chemical substance/absence: YML079W (gene YML079W) | level of expressed mRNA in the presence of chemical substance/in its absence (gene YML110C) | The level of expressed mRNA in the presence of chemical substance/absence: YNL253W (gene YNL253W)
1.1: The level of expressed mRNA in the presence of chemical substance/absence: YHL006C (gene YHL006C) | The level of expressed mRNA in the presence of chemical substance/absence: YHL021C (gene YHL021C) | level of expressed mRNA in the presence of chemical substance/in its absence (gene YHR037W) | level of expressed mRNA in the presence of chemical substance/in its absence (gene YIR035C) | The level of expressed mRNA in the presence of chemical substance/absence: YKL059C (gene YKL059C) | The level of expressed mRNA in the presence of chemical substance/absence: YLR226W (gene YLR226W) | The level of expressed mRNA in the presence of chemical substance/absence: YLR392C (gene YLR392C) | The level of expressed mRNA in the presence of chemical substance/absence: YML013W (gene YML013W) | The level of expressed mRNA in the presence of chemical substance/absence: YMR068W (gene YMR068W) | The level of expressed mRNA in the presence of chemical substance/absence: YMR160W (gene YMR160W) | The level of expressed mRNA in the presence of chemical substance/absence: YNL063W (gene YNL063W) | level of expressed mRNA in the presence of chemical substance/in its absence (gene YNL106C)
1.6: The level of expressed mRNA in the presence of chemical substance/absence: YHR083W (gene YHR083W) | level of expressed mRNA in the presence of chemical substance/in its absence (gene YHR092C) | The level of expressed mRNA in the presence of chemical substance/absence: YHR134W (gene YHR134W) | The level of expressed mRNA in the presence of chemical substance/absence: YHR181W (gene YHR181W) | The level of expressed mRNA in the presence of chemical substance/absence: YJL032W (gene YJL032W) | The level of expressed mRNA in the presence of chemical substance/absence: YML029W (gene YML029W) | level of expressed mRNA in the presence of chemical substance/in its absence (gene YMR189W)
1.5: The level of expressed mRNA in the presence of chemical substance/absence: YHR180W (gene YHR180W) | The level of expressed mRNA in the presence of chemical substance/absence: YMR114C (gene YMR114C) | The level of expressed mRNA in the presence of chemical substance/absence: YNL276C (gene YNL276C) | level of expressed mRNA in the presence of chemical substance/in its absence (gene YOL058W) | level of expressed mRNA in the presence of chemical substance/in its absence (gene YOL153C) | The level of expressed mRNA in the presence of chemical substance/absence: YOR155C (gene YOR155C)
1.9: level of expressed mRNA in the presence of chemical substance/in its absence (gene YLR307W) | The level of expressed mRNA in the presence of chemical substance/absence: YNL181W (gene YNL181W) | The level of expressed mRNA in the presence of chemical substance/absence: YNL265C (gene YNL265C)
2.1: level of expressed mRNA in the presence of chemical substance/in its absence (gene YLR142W)
2.0: The level of expressed mRNA in the presence of chemical substance/absence: YJL037W (gene YJL037W) | level of expressed mRNA in the presence of chemical substance/in its absence (gene YJL088W) | level of expressed mRNA in the presence of chemical substance/in its absence (gene YJR159W)
0.8: level of expressed mRNA in the presence of chemical substance/in its absence (gene YHR137W) | level of expressed mRNA in the presence of chemical substance/in its absence (gene YJL196C) | The level of expressed mRNA in the presence of chemical substance/absence: YLR338W (gene YLR338W) | The level of expressed mRNA in the presence of chemical substance/absence: YLR415C (gene YLR415C) | The level of expressed mRNA in the presence of chemical substance/absence: YLR427W (gene YLR427W) | level of expressed mRNA in the presence of chemical substance/in its absence (gene YMR272C) | The level of expressed mRNA in the presence of chemical substance/absence: YNL026W (gene YNL026W) | level of expressed mRNA in the presence of chemical substance/in its absence (gene YNL045W) | The level of expressed mRNA in the presence of chemical substance/absence: YNL058C (gene YNL058C)
3.8: The level of expressed mRNA in the presence of chemical substance/absence: YKR040C (gene YKR040C)
1.8: The level of expressed mRNA in the presence of chemical substance/absence: YJL049W (gene YJL049W) | level of expressed mRNA in the presence of chemical substance/in its absence (gene YMR271C)
3.0: The level of expressed mRNA in the presence of chemical substance/absence: YNL194C (gene YNL194C)
0.9: The level of expressed mRNA in the presence of chemical substance/absence: YHL037C (gene YHL037C) | The level of expressed mRNA in the presence of chemical substance/absence: YHR095W (gene YHR095W) | level of expressed mRNA in the presence of chemical substance/in its absence (gene YIL154C) | level of expressed mRNA in the presence of chemical substance/in its absence (gene YNL104C) | level of expressed mRNA in the presence of chemical substance/in its absence (gene YNL169C) | The level of expressed mRNA in the presence of chemical substance/absence: YNL176C (gene YNL176C) | level of expressed mRNA in the presence of chemical substance/in its absence (gene YNL231C) | level of expressed mRNA in the presence of chemical substance/in its absence (gene YNR033W) | The level of expressed mRNA in the presence of chemical substance/absence: YOR087W (gene YOR087W) | level of expressed mRNA in the presence of chemical substance/in its absence (gene YOR136W) | The level of expressed mRNA in the presence of chemical substance/absence: YOR138C (gene YOR138C)
2.2: The level of expressed mRNA in the presence of chemical substance/absence: YML041C (gene YML041C)
